In BindingDB's records for patent US20240158355 (Baylor College of Medicine, 2024):

How the values were obtained:
[1] = biological target: T1, Bromodomain testis-specific protein [287-359] (Homo sapiens, UniProt Q58F21); assay: AlphaScreen Assay
T1 construct: 287-359
From the text: (§1) No details are given.

[2] = biological target: T2, Bromodomain testis-specific protein [44-116] (UniProt Q58F21); assay: AlphaScreen Assay
T2 construct: 44-116
From the text: as §1

## Cc1cc(N)ccc1-c1nn(C)c2ccc(-c3cncnc3)cc12 [US20240158355, Compound 76]
[1]
  IC50: 9.48 µM
[2]
  IC50: 5.44 µM
